According to patent publication US20230085307A1, “PYRIDAZINONE COMPOUND AND HERBICIDE” (NISSAN CHEMICAL CORPORATION, priority 2019, published 2023):

What was measured:
windgrass = test: Test Example 5: herbicidal effect by foliage application, plastic box (Table 20, symbol L); assay type: in vivo, windgrass (Apera spica-venti); settings: foliage application, 320 g/ha, three weeks after application
Method in brief: (§1)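 Sow seeds spot-wise in sterilized diluvial soil; cover with ~1.5 cm soil. Grow 14 days in greenhouse, 25° C. to 30° C. Spray foliage with emulsion diluted to predetermined amount. Rate effect after 3 weeks.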

rice flat sedge = test: Test Example 3: herbicidal effect by foliage application, Wagner pot (Table 18, symbol E); assay type: in vivo, rice flat sedge (Cyperus iria); settings: 320 g/ha
Method in brief: (§2)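 Plants were sown in alluvial soil held under 0.1–0.5 cm standing water and grown 14 days in a greenhouse at 25–30 °C. An emulsifiable formulation, water-diluted to the set dose, was then sprayed onto the foliage, and effects were scored three weeks later using previously defined criteria.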

blackgrass [1] = test: Test Example 4: herbicidal effect by soil treatment (Table 19, symbol J); assay type: in vivo, blackgrass (Alopecurus myosuroides); settings: amount of applied herbicide 320 g/ha
Method in brief: (§3)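 Soil-surface application: an emulsion agent diluted with water to the predetermined dose is sprayed uniformly over seeds lying under roughly 1.5 cm of sterilized diluvial soil. Boxes stay in a greenhouse at 25° C. to 30° C. Three weeks later, each species is graded on previously defined criteria.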

green foxtail [2] = test: Test Example 5: herbicidal effect by foliage application, plastic box (Table 20, symbol G); assay type: in vivo, green foxtail (Setaria viridis); settings: foliage application, 320 g/ha, three weeks after application
Method in brief: as §1

chickweed [3] = test: Test Example 4: herbicidal effect by soil treatment (Table 19, symbol P); assay type: in vivo, common chickweed (Stellaria media); settings: amount of applied herbicide 320 g/ha
Method in brief: as §3

redroot pigweed [4] = test: Test Example 4: herbicidal effect by soil treatment (Table 19, symbol N); assay type: in vivo, redroot pigweed (Amaranthus retroflexus); settings: amount of applied herbicide 320 g/ha
Method in brief: as §3

blackgrass [5] = test: Test Example 5: herbicidal effect by foliage application, plastic box (Table 20, symbol J); assay type: in vivo, blackgrass (Alopecurus myosuroides); settings: foliage application, 320 g/ha, three weeks after application
Method in brief: as §1

late watergrass = test: Test Example 1: herbicidal activity, application before weed generation under submerged conditions (Table 16, symbol A); assay type: in vivo, late watergrass (Echinochloa oryzicola); settings: 320 g/ha applied herbicide
Method in brief: (§4)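 Submerged Wagner pots (alluvial soil, 4 cm water) sown with weed seeds and planted with 2.5-leaf rice seedlings; emulsifiable concentrate diluted in water applied to water surface on sowing day. Held in greenhouse at 25-30 °C; injury scored 0-5 by herbicidal rate after three weeks.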

wild oat [6] = test: Test Example 4: herbicidal effect by soil treatment (Table 19, symbol I); assay type: in vivo, wild oat (Avena fatua); settings: amount of applied herbicide 320 g/ha
Method in brief: as §3

Japanese bulrush = test: Test Example 1: herbicidal activity, application before weed generation under submerged conditions (Table 16, symbol B); assay type: in vivo, Japanese bulrush (Schoenoplectus juncoides); settings: 320 g/ha applied herbicide
Method in brief: as §4

barnyard grass [7] = test: Test Example 3: herbicidal effect by foliage application, Wagner pot (Table 18, symbol H); assay type: in vivo, barnyard grass (Echinochloa crus-galli); settings: 320 g/ha
Method in brief: as §2

lambsquarters [8] = test: Test Example 4: herbicidal effect by soil treatment (Table 19, symbol O); assay type: in vivo, lambsquarters (Chenopodium album); settings: amount of applied herbicide 320 g/ha
Method in brief: as §3

persian speedwell [9] = test: Test Example 4: herbicidal effect by soil treatment (Table 19, symbol R); assay type: in vivo, Persian speedwell (Veronica persica); settings: amount of applied herbicide 320 g/ha
Method in brief: as §3

redroot pigweed [10] = test: Test Example 5: herbicidal effect by foliage application, plastic box (Table 20, symbol N); assay type: in vivo, redroot pigweed (Amaranthus retroflexus); settings: foliage application, 320 g/ha, three weeks after application
Method in brief: as §1

green foxtail [11] = test: Test Example 4: herbicidal effect by soil treatment (Table 19, symbol G); assay type: in vivo, green foxtail (Setaria viridis); settings: amount of applied herbicide 320 g/ha
Method in brief: as §3

barnyard grass [12] = test: Test Example 5: herbicidal effect by foliage application, plastic box (Table 20, symbol H); assay type: in vivo, barnyard grass (Echinochloa crus-galli); settings: foliage application, 320 g/ha, three weeks after application
Method in brief: as §1

persian speedwell [13] = test: Test Example 5: herbicidal effect by foliage application, plastic box (Table 20, symbol R); assay type: in vivo, Persian speedwell (Veronica persica); settings: foliage application, 320 g/ha, three weeks after application
Method in brief: as §1

barnyard grass [14] = test: Test Example 4: herbicidal effect by soil treatment (Table 19, symbol H); assay type: in vivo, barnyard grass (Echinochloa crus-galli); settings: amount of applied herbicide 320 g/ha
Method in brief: as §3

southern crabgrass [15] = test: Test Example 5: herbicidal effect by foliage application, plastic box (Table 20, symbol F); assay type: in vivo, southern crabgrass (Digitaria ciliaris); settings: foliage application, 320 g/ha, three weeks after application
Method in brief: as §1

oval-leafed pondweed = test: Test Example 1: herbicidal activity, application before weed generation under submerged conditions (Table 16, symbol C); assay type: in vivo, oval-leafed pondweed (Monochoria vaginalis); settings: 320 g/ha applied herbicide
Method in brief: as §4

wild oat [16] = test: Test Example 5: herbicidal effect by foliage application, plastic box (Table 20, symbol I); assay type: in vivo, wild oat (Avena fatua); settings: foliage application, 320 g/ha, three weeks after application
Method in brief: as §1

velvetleaf [17] = test: Test Example 5: herbicidal effect by foliage application, plastic box (Table 20, symbol M); assay type: in vivo, velvetleaf (Abutilon theophrasti); settings: foliage application, 320 g/ha, three weeks after application
Method in brief: as §1

chickweed [18] = test: Test Example 5: herbicidal effect by foliage application, plastic box (Table 20, symbol P); assay type: in vivo, common chickweed (Stellaria media); settings: foliage application, 320 g/ha, three weeks after application
Method in brief: as §1

Italian ryegrass [19] = test: Test Example 4: herbicidal effect by soil treatment (Table 19, symbol K); assay type: in vivo, Italian ryegrass (Lolium multiflorum); settings: amount of applied herbicide 320 g/ha
Method in brief: as §3

lambsquarters [20] = test: Test Example 5: herbicidal effect by foliage application, plastic box (Table 20, symbol O); assay type: in vivo, lambsquarters (Chenopodium album); settings: foliage application, 320 g/ha, three weeks after application
Method in brief: as §1

southern crabgrass [21] = test: Test Example 4: herbicidal effect by soil treatment (Table 19, symbol F); assay type: in vivo, southern crabgrass (Digitaria ciliaris); settings: amount of applied herbicide 320 g/ha
Method in brief: as §3

velvetleaf [22] = test: Test Example 4: herbicidal effect by soil treatment (Table 19, symbol M); assay type: in vivo, velvetleaf (Abutilon theophrasti); settings: amount of applied herbicide 320 g/ha
Method in brief: as §3

Italian ryegrass [23] = test: Test Example 5: herbicidal effect by foliage application, plastic box (Table 20, symbol K); assay type: in vivo, Italian ryegrass (Lolium multiflorum); settings: foliage application, 320 g/ha, three weeks after application
Method in brief: as §1

Chinese sprangletop = test: Test Example 3: herbicidal effect by foliage application, Wagner pot (Table 18, symbol D); assay type: in vivo, chinese sprangletop (Leptochloa chinensis); settings: 320 g/ha
Method in brief: as §2

## CCOc1ccccc1-c1sc2ccccc2c1-c1c(O)c(C)nn(C)c1=O [1-011]
windgrass
  herbicidal effect grade, L: windgrass: 4 (Herbicidal rate of 70% or more and less than 90%)
Rice flat sedge
  herbicidal effect on E (rice flat sedge), rating 0-5: 5 (Herbicidal rate of 90% or more (almost completely withered))
Blackgrass [1]
  herbicidal effect rating, J: blackgrass: 4 (Herbicidal rate of 70% or more and less than 90%)
Green foxtail [2]
  herbicidal effect grade, G: green foxtail: 5 (Herbicidal rate of 90% or more (almost completely withered))
Chickweed [3]
  herbicidal effect rating, P: chickweed: 5 (Herbicidal rate of 90% or more (almost completely withered))
Redroot pigweed [4]
  herbicidal effect rating, N: redroot pigweed: 4 (Herbicidal rate of 70% or more and less than 90%)
Blackgrass [5]
  herbicidal effect grade, J: blackgrass: 5 (Herbicidal rate of 90% or more (almost completely withered))
Late watergrass
  Herbicidal effect on A: late watergrass (grade 0-5): 5 (Herbicidal rate of 90% or more (almost completely withered))
Wild oat [6]
  herbicidal effect rating, I: wild oat: 2 (Herbicidal rate of 20% or more and less than 40%)
Japanese bulrush
  Herbicidal effect on B: Japanese bulrush (grade 0-5): 0 (Herbicidal rate of 5% or less (almost no effect))
Barnyard grass [7]
  herbicidal effect on H (barnyard grass), rating 0-5: 5 (Herbicidal rate of 90% or more (almost completely withered))
Lambsquarters [8]
  herbicidal effect rating, O: lambsquarters: 4 (Herbicidal rate of 70% or more and less than 90%)
Persian speedwell [9]
  herbicidal effect rating, R: persian speedwell: 5 (Herbicidal rate of 90% or more (almost completely withered))
Redroot pigweed [10]
  herbicidal effect grade, N: redroot pigweed: 5 (Herbicidal rate of 90% or more (almost completely withered))
Green foxtail [11]
  herbicidal effect rating, G: green foxtail: 5 (Herbicidal rate of 90% or more (almost completely withered))
Barnyard grass [12]
  herbicidal effect grade, H: barnyard grass: 5 (Herbicidal rate of 90% or more (almost completely withered))
Persian speedwell [13]
  herbicidal effect grade, R: persian speedwell: 5 (Herbicidal rate of 90% or more (almost completely withered))
Barnyard grass [14]
  herbicidal effect rating, H: barnyard grass: 5 (Herbicidal rate of 90% or more (almost completely withered))
Southern crabgrass [15]
  herbicidal effect grade, F: southern crabgrass: 5 (Herbicidal rate of 90% or more (almost completely withered))
oval-leafed pondweed
  Herbicidal effect on C: oval-leafed pondweed (grade 0-5): 0 (Herbicidal rate of 5% or less (almost no effect))
Wild oat [16]
  herbicidal effect grade, I: wild oat: 4 (Herbicidal rate of 70% or more and less than 90%)
Velvetleaf [17]
  herbicidal effect grade, M: velvetleaf: 3 (Herbicidal rate of 40% or more and less than 70%)
Chickweed [18]
  herbicidal effect grade, P: chickweed: 5 (Herbicidal rate of 90% or more (almost completely withered))
Italian ryegrass [19]
  herbicidal effect rating, K: Italian ryegrass: 3 (Herbicidal rate of 40% or more and less than 70%)
Lambsquarters [20]
  herbicidal effect grade, O: lambsquarters: 2 (Herbicidal rate of 20% or more and less than 40%)
Southern crabgrass [21]
  herbicidal effect rating, F: southern crabgrass: 3 (Herbicidal rate of 40% or more and less than 70%)
Velvetleaf [22]
  herbicidal effect rating, M: velvetleaf: 0 (Herbicidal rate of 5% or less (almost no effect))
Italian ryegrass [23]
  herbicidal effect grade, K: Italian ryegrass: 4 (Herbicidal rate of 70% or more and less than 90%)
Chinese sprangletop
  herbicidal effect on D (Chinese sprangletop), rating 0-5: 3 (Herbicidal rate of 40% or more and less than 70%)
